The record followed here is ChEMBL document CHEMBL1136215, “Potent quinoxaline-based inhibitors of PDGF receptor tyrosine kinase activity. Part 1: SAR exploration and effective bioisosteric replacement of a phenyl substituent” (Bioorg Med Chem Lett, 2003).

Broadly, the IC50 is the concentration that inhibits the measured activity by half. Low values mean inhibition by little substance, high ones a need for much substance. For orientation: inhibition means the share of the control response that was lost under treatment.

The test system of one experiment is HASMC. In words: Inhibition of mitogenesis in human aortic smooth muscle cells(HASMC). The format is functional, cell-based.
Compound `COc1cc2ncc(O[C@H]3CC4CCC3C4)nc2cc1OC` (mixture of isomers) displayed an IC50 of 395 nM.
On the same count and under the same terms, under `COc1cc2ncc(N[C@@H]3CC4CCC3C4)nc2cc1OC` (stereo in doubt; 38) stands 61 nM.
On the same count and under the same terms, under `COc1cc2ncc(N[C@H]3CC4CCC3C4)nc2cc1OC` (some centres not stated) stands 585 nM.

For a further experiment, the target named is T1, Platelet-derived growth factor receptor (Homo sapiens, UniProt P09619+P16234). In words: Inhibition of Platelet-derived growth factor receptor. The format is protein-complex assay.
With `Cc1cc2ncc(Nc3ccccc3)nc2cc1C`, the IC50 was found to be 340 nM.
On the same count and under the same terms, under `COc1cc2ncc(O[C@@H]3CC4CCC3C4)nc2cc1OC` (mixture of isomers) stands 265 nM; under `COc1cc2ncc(O[C@H]3CC4CCC3C4)nc2cc1OC` (mixture of isomers), 25 nM.
The compound `c1ccc(Nc2cnc3ccccc3n2)cc1` yielded an IC50 of 5100 nM.
Take `COc1cc2ncc(NC3CCCCC3)nc2cc1OC`: the IC50 was 124 nM.
As to `COc1cc2ncc(NC3CC4CCC3C4)nc2cc1OC` (racemic), half-maximal inhibition (IC50) required 20 nM.
`COc1cc2ncc(OC3CCCC3)nc2cc1OC` returned an IC50 of 159 nM. This IC50 is about 8-fold higher than that of the compound before.
Compound `COc1cc2cc(OC3CCCCC3)cnc2cc1OC` registered an IC50 of 601 nM.
With `COc1cc2ncc(Nc3cccc(Cl)c3)nc2cc1OC`, it took 4 nM to reach half-maximal inhibition (IC50). Against the preceding compound, the IC50 is about 150-fold lower.
Compound `COc1cc2ncc(Nc3ccccc3)nc2cc1OC` yielded an IC50 of 6 nM.
Regarding `COc1cc2ncc(SC3CCCC3)nc2cc1OC`, the IC50 was determined as 226 nM. This IC50 lies about 38-fold higher than the previous one.
On the same count and under the same terms, the same measure for `COc1cc2ncc(NC3CCCC(C)C3)nc2cc1OC` (configuration not stated): 41 nM; for `COc1ccc2ncc(Nc3ccccc3)nc2c1`: 42 nM.
Compound `COc1ccc2nc(Nc3ccccc3)cnc2c1` gave an IC50 of 1600 nM.
For the compound `COc1cc2ncc(NC3CCCC3)nc2cc1OC`, the IC50 was determined as 128 nM.
Compound `COc1cc2ncc(N[C@@H]3CC4CCC3C4)nc2cc1OC` (stereo in doubt; 38) showed an IC50 of 15 nM.
`COc1cc2ncc(OC3CCCCC3)nc2cc1OC` registered an IC50 of 65 nM.
In turn, `COc1cc2ncc(N[C@@H]3CC4CCC3C4)nc2cc1OC` (mixture of isomers) yielded an IC50 of 879 nM.
As to `COc1cc2ncc(N[C@H]3CC4CCC3C4)nc2cc1OC` (some centres not stated), the IC50 is 742 nM. This IC50 and that of the compound before are within 1.5-fold of each other.
`COc1cc2cc(-c3ccsc3)cnc2cc1OC` returned a half-maximal inhibitory concentration (IC50) of 461 nM.
On the same count and under the same terms, under `COc1cc2ncc(NCc3ccccc3)nc2cc1OC` stands 92 nM.
The compound `COc1cc2cc(NC3CCCCC3)cnc2cc1OC` yielded an IC50 of 96 nM.

In the next experiment the target is T1, Platelet-derived growth factor receptor. In words: Inhibition of Platelet-derived growth factor receptor at 1 uM. It is filed as protein-complex assay.
As to `CCC1CCC(Oc2cnc3cc(OC)c(OC)cc3n2)CC1` (configuration not stated), the inhibition came out at 16%.
For the compound `COc1cc2ncc(Nc3ccc(Cl)cc3)nc2cc1OC`, the inhibition is 8%.
Still for that read-out and setting: under `COc1cccc2ncc(Nc3ccccc3)nc12` stands 11%.
Same read-out and setting: the same measure for `COc1cc2ncc(N(C)c3ccccc3)nc2cc1OC`: 0%; for `COc1cccc2nc(Nc3ccccc3)cnc12`: 5%; for `COc1cc2ncc(NCC3CCCCC3)nc2cc1OC`: 12%.
In the case of `COc1cc2ncc(SC3CCCCC3)nc2cc1OC`, the inhibition is 0%.
